This is an account of results in ChEMBL document CHEMBL1255530, “3D-QSAR CoMFA study of benzoxazepine derivatives as mGluR5 positive allosteric modulators” (Bioorg Med Chem Lett, 2010).

Metabotropic glutamate receptor 5, sequence (P31424 whole entry): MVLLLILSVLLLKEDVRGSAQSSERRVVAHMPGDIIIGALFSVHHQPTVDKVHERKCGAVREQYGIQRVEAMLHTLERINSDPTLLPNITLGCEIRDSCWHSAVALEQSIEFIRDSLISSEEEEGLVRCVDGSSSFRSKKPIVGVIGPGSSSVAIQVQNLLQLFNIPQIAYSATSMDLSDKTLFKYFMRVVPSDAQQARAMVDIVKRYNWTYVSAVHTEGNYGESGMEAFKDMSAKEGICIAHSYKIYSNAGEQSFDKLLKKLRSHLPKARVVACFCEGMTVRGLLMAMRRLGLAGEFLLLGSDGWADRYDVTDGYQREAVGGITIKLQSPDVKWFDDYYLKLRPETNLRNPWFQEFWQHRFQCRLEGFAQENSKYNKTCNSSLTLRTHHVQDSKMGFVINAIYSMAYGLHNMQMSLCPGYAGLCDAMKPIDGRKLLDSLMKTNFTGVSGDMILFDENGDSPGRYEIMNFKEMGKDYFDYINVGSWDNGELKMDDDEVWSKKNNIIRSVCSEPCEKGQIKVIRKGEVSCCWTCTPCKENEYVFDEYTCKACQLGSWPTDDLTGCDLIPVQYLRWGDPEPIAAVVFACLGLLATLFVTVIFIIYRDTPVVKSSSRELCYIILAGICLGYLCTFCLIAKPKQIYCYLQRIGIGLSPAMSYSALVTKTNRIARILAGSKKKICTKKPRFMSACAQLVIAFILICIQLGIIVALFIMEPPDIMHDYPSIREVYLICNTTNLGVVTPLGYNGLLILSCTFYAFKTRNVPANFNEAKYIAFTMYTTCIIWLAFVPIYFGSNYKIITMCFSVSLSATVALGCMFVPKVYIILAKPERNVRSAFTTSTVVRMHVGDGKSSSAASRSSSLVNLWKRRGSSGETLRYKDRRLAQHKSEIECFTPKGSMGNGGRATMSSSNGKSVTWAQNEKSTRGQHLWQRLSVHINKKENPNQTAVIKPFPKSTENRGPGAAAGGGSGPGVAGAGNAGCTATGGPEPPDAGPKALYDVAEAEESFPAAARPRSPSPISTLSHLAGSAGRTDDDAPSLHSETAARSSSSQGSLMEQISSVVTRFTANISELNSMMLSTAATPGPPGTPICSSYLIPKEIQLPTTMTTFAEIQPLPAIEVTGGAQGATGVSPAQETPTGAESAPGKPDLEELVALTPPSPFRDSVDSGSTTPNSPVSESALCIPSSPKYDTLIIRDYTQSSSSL

The assay addresses Metabotropic glutamate receptor 5 (Rattus norvegicus, UniProt P31424). The assay can be described thus: Positive allosteric modulation of rat mGluR5 expressed in HEK293 cells.
The EC50 is the concentration that produces a half-maximal response. Regarding `CCCCSc1nnc2c(n1)O[C@@H](CC)N(C(C)=O)c1ccccc1-2`, the EC50 was 3980 nM.
In the case of `CCCC(=O)N1c2ccccc2-c2nnc(SC)nc2O[C@H]1c1cccc(OC)c1` it was 1020 nM; in that of `CCC(=O)N1c2ccccc2-c2nnc(SC)nc2O[C@H]1c1ccc(C)s1`, 1950 nM.
For `CCSc1nnc2c(n1)O[C@@H](c1ccc(Cl)cc1)N(C(C)=O)c1ccccc1-2`, the response was half-maximal at 676 nM (EC50).
Then `CCSc1nnc2c(n1)O[C@@H](c1ccc(OC(C)=O)cc1)N(C(C)=O)c1ccccc1-2`, with 813 nM; and `CCC(=O)N1c2ccccc2-c2nnc(SC)nc2O[C@H]1c1ccccn1`, with 7410 nM; and `CCC(=O)Oc1ccc([C@@H]2Oc3nc(SC)nnc3-c3ccccc3N2C(=O)CC)cc1`, with 3630 nM.
Then `CCSc1nnc2c(n1)O[C@@H](c1cccc(C)c1OC(C)=O)N(C(C)=O)c1ccccc1-2`, with 2820 nM.
Then `CCSc1nnc2c(n1)O[C@@H](c1ccc(N(C)C)cc1)N(C(C)=O)c1ccccc1-2`, with 4270 nM; and `CCSc1nnc2c(n1)O[C@@H](c1cc(Br)ccc1OC)N(C(=O)CC)c1ccccc1-2`, with 813 nM; and `CCSc1nnc2c(n1)O[C@@H](c1ccccn1)N(C(=O)CC)c1ccccc1-2`, with 4370 nM.
`C=CCSc1nnc2c(n1)O[C@@H](c1ccccn1)N(C(=O)CC)c1ccccc1-2` had an EC50 of 437 nM.
In turn, `CCSc1nnc2c(n1)O[C@@H](/C=C/c1ccco1)N(C(C)=O)c1ccccc1-2` showed an EC50 of 1170 nM.
Then `CCSc1nnc2c(n1)O[C@@H](c1ccc(SC)cc1)N(C(=O)CC)c1ccccc1-2`, with 1230 nM; and `C=CCSc1nnc2c(n1)O[C@@H](c1ccc(OC)c(OC)c1OC)N(C(C)=O)c1ccccc1-2`, with 7760 nM.
In the case of `C=CCSc1nnc2c(n1)O[C@@H](c1cccs1)N(C(=O)CC)c1ccccc1-2` it was 57.5 nM; in that of `CCSc1nnc2c(n1)O[C@@H](c1cc(Br)ccc1OC)N(C(C)=O)c1ccccc1-2`, 120 nM; in that of `CCC(=O)N1c2ccccc2-c2nnc(SC)nc2O[C@H]1c1cccc(C)n1`, 2340 nM.
In the case of `CCC(=O)Oc1ccc(Br)c([C@@H]2Oc3nc(SC)nnc3-c3ccccc3N2C(=O)CC)c1` it was 5750 nM; in that of `CCCC(=O)N1c2ccccc2-c2nnc(SCC)nc2O[C@H]1c1cccs1`, 263 nM.
Turning to `CCOc1cc([C@@H]2Oc3nc(SC)nnc3-c3ccccc3N2C(=O)CC)ccc1OC(=O)CC`, the EC50 was 2820 nM.
`CCSc1nnc2c(n1)O[C@@H](c1cccs1)N(C(=O)CC)c1ccccc1-2` had an EC50 of 309 nM.
Then `CCSc1nnc2c(n1)O[C@@H](c1ccco1)N(C(=O)CC)c1ccccc1-2`, with 813 nM.
Consider `CCOC(=O)COc1ccccc1[C@@H]1Oc2nc(SC)nnc2-c2ccccc2N1C(=O)CC`, for which the midpoint of the response, the EC50, lay at 2190 nM. This EC50 is about 2.7-fold higher than that of the molecule before.
`CCCCOc1ccccc1[C@@H]1Oc2nc(SC)nnc2-c2ccccc2N1C(=O)CC` gave an EC50 of 3720 nM.
The molecule `C=CCSc1nnc2c(n1)O[C@@H](c1sccc1C)N(C(C)=O)c1ccccc1-2` had an EC50 of 457 nM.
In the case of `CCC(=O)N1c2ccccc2-c2nnc(SC)nc2O[C@H]1c1cc2c(cc1Cl)OCO2` it was 5250 nM; in that of `CSc1nnc2c(n1)O[C@@H](c1cccc(OCc3ccccc3)c1)N(C(C)=O)c1ccccc1-2`, 3310 nM; in that of `CCCSc1nnc2c(n1)O[C@@H](c1ccccc1F)N(C(=O)CC)c1ccccc1-2`, 646 nM.
`CCCC(=O)N1c2ccccc2-c2nnc(SC)nc2O[C@H]1c1cccnc1`: the EC50 is 3890 nM.
For the molecule `CCCC(=O)N1c2ccccc2-c2nnc(SC)nc2O[C@H]1c1sccc1C`, the EC50 was 1860 nM.
Then `CCCSc1nnc2c(n1)O[C@@H](CC)N(C(C)=O)c1ccccc1-2`, with 6760 nM; and `CCSc1nnc2c(n1)O[C@@H](C)N(C(C)=O)c1ccccc1-2`, with 13800 nM.
In turn, `CCC(=O)N1c2ccccc2-c2nnc(SC)nc2O[C@H]1c1cc(Cl)ccc1OC` gave an EC50 of 759 nM.
In the case of `COc1ccc([C@@H]2Oc3nc(SC)nnc3-c3ccccc3N2C(C)=O)cc1` it was 2750 nM; in that of `CSc1nnc2c(n1)O[C@@H](c1ccccc1F)N(C(C)=O)c1ccccc1-2`, 3470 nM; in that of `CCC(=O)N1c2ccccc2-c2nnc(SC)nc2O[C@H]1c1ccc(OC)cc1`, 2190 nM.
Then `CCC(=O)N1c2ccccc2-c2nnc(SC)nc2O[C@H]1c1ccccc1OC`, with 562 nM; and `C=CCSc1nnc2c(n1)O[C@@H](c1ccc(C)s1)N(C(C)=O)c1ccccc1-2`, with 331 nM; and `CSc1nnc2c(n1)O[C@@H](c1ccc(Br)cc1)N(C(C)=O)c1ccccc1-2`, with 1510 nM.
Molecule `CCC(=O)Oc1ccc(Cl)cc1[C@@H]1Oc2nc(SC)nnc2-c2ccccc2N1C(=O)CC` had an EC50 of 3240 nM.
Then `CCC(=O)N1c2ccccc2-c2nnc(SC)nc2O[C@H]1c1cc(OC)ccc1OC`, with 191 nM.
Take `CCOc1ccccc1[C@@H]1Oc2nc(SC)nnc2-c2ccccc2N1C(C)=O`: the EC50 is 1230 nM.
Then `CSc1nnc2c(n1)O[C@@H](c1ccc(Cl)cc1)N(C(C)=O)c1ccccc1-2`, with 2090 nM; and `CCOc1ccc(Br)cc1[C@@H]1Oc2nc(SC)nnc2-c2ccccc2N1C(=O)CC`, with 398 nM.
In the case of `CCCC(=O)N1c2ccccc2-c2nnc(SC)nc2O[C@H]1c1cccc(C)n1` it was 1950 nM; in that of `CCSc1nnc2c(n1)O[C@@H](c1cccn1C)N(C(=O)CC)c1ccccc1-2`, 1260 nM; in that of `CCSc1nnc2c(n1)O[C@@H](c1ccc(OC)c(Br)c1)N(C(C)=O)c1ccccc1-2`, 955 nM.
In the case of `CCCC(=O)N1c2ccccc2-c2nnc(SC)nc2O[C@H]1c1ccc(OC)cc1OC`, the EC50 was 2090 nM. Compared with the last molecule, the EC50 is about 2.2-fold higher.
In the case of `CCCC(=O)N1c2ccccc2-c2nnc(SC)nc2O[C@H]1c1cccs1` it was 871 nM; in that of `CCSc1nnc2c(n1)O[C@@H](c1ccc(OC)cc1OC)N(C(C)=O)c1ccccc1-2`, 490 nM; in that of `CCSc1nnc2c(n1)O[C@@H](c1ccc(OCc3ccccc3)cc1)N(C(C)=O)c1ccccc1-2`, 6030 nM.
In turn, `CCCC(=O)N1c2ccccc2-c2nnc(SC)nc2O[C@H]1c1ccc(C)o1` showed an EC50 of 2240 nM.
Then `C=CCSc1nnc2c(n1)O[C@@H](c1cccnc1)N(C(C)=O)c1ccccc1-2`, with 832 nM; and `CCOc1cc([C@@H]2Oc3nc(SCC)nnc3-c3ccccc3N2C(C)=O)ccc1OC(C)=O`, with 1950 nM.
Regarding `CCSc1nnc2c(n1)O[C@@H](c1cc(Cl)ccc1OC(C)=O)N(C(C)=O)c1ccccc1-2`, the EC50 is 1580 nM.
